The values that follow come from patent US10357537B2, “Cyclotides as immunosuppressive agents” (priority 2011, dated 2019).

Data set [1] has as its system activated human primary PBMC. Briefly: Anti-proliferative CFSE cell division assay on anti-CD3/CD28-activated PBMC. The note with it: CFSE, flow cytometry; extract 50-100 μg/mL, cyclotides 1.8-14 μM, melittin 0.05-1.6 μM. Here is the method:
Human peripheral blood mononuclear cells (PBMC) were isolated from the blood of healthy adult donors obtained from the Blood Transfusion Centre (University Medical Center, Freiburg, Germany). Venous blood was centrifuged on a LymphoPrep™ gradient (density: 1.077 g/cm^3, 20 min, 500×g, 20° C.; Progen, Heidelberg, Germany). Afterwards cells were washed twice with medium and cell viability and concentration was determined using the trypan blue exclusion test. PBMC were cultured in RPMI 1640 medium supplemented with 10% heat-inactivated fetal calf serum (PAA, Coelbe, Germany), 2 mM L-glutamine, 100 U/mL penicillin and […] (all from Invitrogen, Karlsruhe, Germany). The cells were cultured at 37° C. in a humidified incubator with a 5% CO2/95% air atmosphere. All experiments conducted on human material were approved by the Ethics committee of the University of Freiburg.
(§1) After cultivation, the cells were assessed in bioassays as described in the text.
For cell proliferation and cell division tracking analysis PBMC were harvested and washed twice in cold PBS and resuspended in PBS at a concentration of 5×10^6 cells/mL. Cells were incubated for 10 min at 37° C. with carboxyfluorescein diacetate succinimidyl ester (CFSE; 5 μM: Sigma-Aldrich, Taufkirchen, Germany). The staining reaction was stopped by washing twice with complete medium. Afterwards, the cell division progress was analysed using flow cytometric analysis.
The anti-proliferative effect of cyclotide mutants/variants was tested according to Example 5. […] Afterwards the cell proliferation was assessed by analysing cell division using flow cytometric-based histogram analysis.
In general terms: Flow cytometry measures light scatter and fluorescence of single cells or particles in a stream.

The test system of the next data set is nematodes. Briefly: Relative nematocidal activity (other assays, Table 2). In kind it is in vivo. The note with it: some cells print two values separated by a slash.
A short description of data set [2]: Relative hemolytic activity (other assays, Table 2). In kind it is cell-based. The note with it: some values given for the Ala mutant.
The nature of data set [3]: Relative insecticidal activity (other assays, Table 2). To be noted: in vivo.
Data set [4] deals with activated human primary PBMC. Briefly: Flow cytometric forward-side-scatter analysis of viability and proliferation. In kind it is cell-based. The note with it: data not shown. Here is the method: After completion of the chemical analysis, different concentrations of the crude O. affinis cyclotide extract were tested for its anti-proliferative capacity on activated human primary PBMC (FIG. 2).

The test system of data set [5] is activated human primary PBMC. Here is the method:
as §1
The levels of apoptosis were determined using the annexin V-FITC apoptosis detection kit (eBioscience, Frankfurt, Germany) according to the manufacturer's instructions. After annexin V staining, propidium iodide solution (PI; eBioscience) was added and the cells were incubated in the dark, followed by a flow cytometric analysis to determine the amount of apoptosis and necrosis. CPT (30 μg/mL) and Triton-X 100 (0.5%) was used as positive controls for apoptosis and necrosis, respectively.
Cellular apoptotic and necrotic hallmarks were measured by using inter-nucleosomal DNA fragmentation (subG1^+ cells) assay and phosphatidylserine surface analysis through a single and combinatory annexin V and propidium iodide staining. This double staining process allowed the discrimination between viable (annexin^−/PI^−), apoptotic (annexin^+/PI^− and annexin^+/PI^+) or necrotic (annexin^−/PI^+) cells.

Data set [6] has as its system experimental auto-immune encephalomyelitis in C57BL/6 mice. It is filed as in vivo, mouse. To be noted: 43 days.
Data set [7] concerns CNS inflammatory and demyelinating lesions. In words: Histopathology of CNS in EAE mice. In kind it is in vivo, mouse. To be noted: haemotoxylin/eosin, Luxol fast blue, Bielshowsky silver staining. The source says:
At the completion of the experiments, mice were anesthetized, their blood collected (for subsequent antibody determination) and brain and spinal cord carefully removed, prior to immersion in a 4% paraformaldehyde, 0.1 M phosphate buffer solution. Segments of brain, cerebellum and spinal cord were embedded in paraffin. Sections were stained with haemotoxylin-eosin, Luxol fast blue and Bielshowsky for evidence of inflammation, demyelination and axonal damage, respectively (McQualter 2001 J Exp Med. October 1; 194(7), 873-82). Semiquantitative histological evaluation for inflammation and demyelination was performed and scored in a blind fashion as follows: 0, no inflammation; 1, cellular infiltrate only in the perivascular areas and meninges; 2, mild cellular infiltrate in parenchyma; 3, moderate cellular infiltrate in parenchyma; and 4, severe cellular infiltrate in parenchyma (Bettadapura J Neurochem 70, 199, 1593-1599 8; Okuda J Neuroimmunol 131, 2002, 115-125).
The influence of kalata B1 vaccination on the formation of CNS inflammatory and demyelinating lesions was examined by histological studies of fixed tissue using haemotoxylin/eosin, Luxol fast blue (LFB) and Bielshowsky silver staining.

The subject of the next data set is anti-MOG antibodies. In words: MOG-specific antibody ELISA of sera. It is filed as in vivo, mouse. The note with it: Day 43, reactivity to MOG35-55. The procedure:
Antibody activity to rMOG and MOG35-55 in mouse sera was measured by ELISA, as previously described Ichikawa Cell Immunol 191, 1999, 97-104). Briefly, serum was collected at the end of the experiments and tested by ELISA with rMOG and MOG35-55 peptide-coated plates (Maxisorp, Nunc).
Whether the suppression of EAE in mice vaccinated with kalata B1 was associated with a decrease in the production of specific antibodies to MOG was examined. Accordingly, sera from kalata B1 and PBS treated mice were collected at the completion of the experiment (Day 43) and tested for their reactivity to MOG35-55.
A general note: An ELISA detects its analyte on a solid surface through an enzyme-linked reagent.

The subject of data set [8] is spleen cell cultures of EAE mice. In words: Cytokine bead array of spleen cell supernatants. In kind it is cell-based, mouse.
Protocol: For cytokine assays, 2 ml of cells (5×10^6 cells/ml) from spleens isolated 32-46 days after immunization were added to 24 well plates either alone or with MOG35-55 (10 μg/ml) or with anti-CD3ε and anti-CD 28 (20 μg/ml each). Supernatants were collected at 48 and 72 h. Quantitation of mouse cytokine content incorporating Th1, Th2 cytokines and chemokines (IFNγ, IL-2, IL-3, IL-4, IL-5, IL-6, IL-9, IL-10, IL-12p70, IL-13, GM-CSF, KC, MCP-1, MIG, and TNF) were simultaneously determined using a multiplexed bead assay (Cytometric Bead Array Flex sets [CBA]) according to the manufacturer's recommended protocol (Becton Dickinson). Acquisition of 4500 events was performed using a FACScanto II flow cytometer (Becton Dickinson, San Jose, USA) and Diva software and data analysed and fitted to a 4-parameter logistic equation using the FCAP array software (Soft Flow, Pécs, Hungary). Minimum detection levels of each cytokine were: IFNγ, 5.2 μg/ml; IL-2, 1.5 μg/ml; IL-3, 4.2 μg/ml; IL-4, 0.8 μg/ml; IL-5, 4.8 μg/ml; IL-6, 6.5 μg/ml; IL-9, 10.5 μg/ml; IL-10, 16.4 μg/ml; IL-12p70, 9.2 μg/ml; IL-13, 7.3 μg/ml; GM-CSF, 9.9 μg/ml; KC, 16.2 μg/ml; MCP-1, 29 μg/ml; MIG, 11.4 μg/ml and TNF, 17.1 μg/ml.
Accordingly, conditioned media generated from in vitro stimulated and non-stimulated spleen cell cultures were assessed in cytokine bead array assays. A total of 15 cytokines were analysed simultaneously, including, IL2, IL3, IL4, IL5, IL6, IL9, IL10, IL12p70, IL13, IFNγ, GM-CSF, KC, MCP1, MIG and TNFα.
Data set [9] deals with splenocytes of vaccinated EAE mice. The note with it: MOG35-55.
Protocol: Spleens were taken from mice sacrificed 32-46 days after MOG35-55 immunization. Cells were gently dispersed through a 70 μm nylon mesh (BD) into a single cell suspension, washed and cultured at 2.5×10^6 cells/ml in complete RPMI (RPMI 1640 containing 10% heat-inactivated fetal calf serum (Sigma), 2 mM L-glutamine, 100 U/ml of penicillin, 100 μg/ml of streptomycin, 50 μm 2-mercaptoethanol and 1 mm sodium pyruvate. Two hundred microliters of cell suspensions were then added to 96 well microtitre plates either alone, with MOG35-55 (20 μg/ml) or anti-CD3ε and anti-CD 28 (20 μg/ml each) and incubated for 66 h at 37° C. with 5% CO2. Ten microliters of [^3H]thymidine (1 μCi/well; Amersham, Australia; diluted 1/10 in media) were added to each well for the last 18 h. Plates were harvested onto glass fibre filters and a drop of Microscint Scintillant (Perkin Elmer) was added to each well. Counts were read using a Top Count NXT Scintillation Counter (Perkin Elmer). Presented values are the mean of three wells.
In a further data set the test system is H. contortus nematodes. To be noted: Huang et al., 2010; read-out: IC50 nematocidal activity; cited from earlier work.
The subject of data set [10] is T. colibriformus nematodes. To be noted: Huang et al., 2010; read-out: IC50 nematocidal activity; cited from earlier work.
The test system of data set [11] is human T-lymphoblast cells. The note with it: read-out: IC50 cytotoxicity; Daly et al., 2004; cited from earlier work.
The conditions of data set [12]: Barry 2003; Henriques 2011; cited from earlier work.
Setting [13] is: non-stimulated spleen cell supernatants.

With `CC(C)C[C@@H]1NC(=O)CNC(=O)[C@H](CC(N)=O)NC(=O)[C@H](CCCNC(=N)N)NC(=O)[C@H]([C@@H](C)O)NC(=O)[C@@H]2CSSC[C@@H]3NC(=O)[C@H]([C@@H](C)O)NC(=O)CNC(=O)CNC(=O)[C@H](C(C)C)NC(=O)[C@@H]4CSSC[C@H](NC(=O)[C@H]([C@@H](C)O)NC(=O)[C@H](CSSC[C@H](NC(=O)[C@H](C(C)C)NC(=O)[C@@H]5CCCN5C1=O)C(=O)NCC(=O)N[C@@H](CCC(=O)O)C(=O)N[C@@H]([C@@H](C)O)C(=O)N4)NC(=O)CNC(=O)[C@@H]1CCCN1C(=O)[C@H]([C@@H](C)O)NC(=O)[C@H](CC(N)=O)NC3=O)C(=O)N[C@@H](CO)C(=O)N[C@@H](Cc1c[nH]c3ccccc13)C(=O)N1CCC[C@H]1C(=O)N[C@@H](C(C)C)C(=O)N2` [Kalata B1], the “cell division / proliferation of activated PBMC (in words)” value in [1] was “dose-dependent decrease of the cell division capacity”. In addition, in the data set on nematodes, the “Relative activity in other assays (fold difference to kB1): nematocidal” value is listed as 1.0 fold difference to kB1. For the same compound, the “Relative activity in other assays (fold difference to kB1): hemolytic” value in data set [2] is 0.7 fold difference to kB1. Also, the “Relative activity in other assays (fold difference to kB1): insecticidal” value in data set [3] is on record as 1.0 fold difference to kB1. Also, in data set [4], the “concentrations cytotoxic to the cells” value is “higher than 14 μM”. In addition, the induction of necrosis entry in data set [5] (kalata B1 14 μM vs untreated control, Triton-X 100, melittin high concentrations) is listed as “slightly increased”. In data set [5] (kalata B1 1.8-14 μM, CPT 30 μg/mL, melittin up to 1.6 μM), the induction of apoptosis entry was “no significant influence on the induction of apoptosis”. Besides, the mean cumulative score in data set [6] (p<0.01 vs PBS control group) turned out to be 42.2±13.0. In addition, the “incidence and severity of EAE” value in data set [6] (three sc injections in IFA at weekly intervals before EAE induction) was “reduction in the incidence and severity of EAE”. Also, the “histological lesions of EAE” value in data set [7] is reported as “some improvement in disease severity as judged by decrease in histological lesions of EAE”. Also, in the data set on anti-MOG antibodies, the “anti-MOG antibodies in sera” value is reported as “anti-MOG antibodies were detected in all sera regardless of the vaccination regimen”. Besides, the “cytokine content in stimulated supernatants” value in [8] (MOG35-55 or CD3/38-stimulated, cyclotide vs control groups, data not shown) is reported as “no marked changes in cytokine content”. For the same compound, the “level of TNFα” value in data set [8] (setting [13]) is “significantly reduced levels”. Moreover, in data set [8] (setting [13]), the “level of chemokine MIG” value was “significantly reduced levels”. Also, the “stimulation indices (SI), splenocyte proliferation to MOG” value in data set [9] was found to be 2.9±0.4. The IC50 (in general, the concentration needed to halve the response being measured) with H. contortus nematodes is 2.7 µM; in data set [10] it was 4.5 µM; in [11] it was 3.5 µM. Moreover, in [12], the “concentrations causing hemolysis and membrane disruption” value was over 50 µM.
